Numbers after ± are expanded uncertainties.
Assay: xn = mol fraction of the nth substance listed
Conditions: 93.2 kPa, Liquid; for speed of sound: Frequency=3 MHz, Sing-around technique in a fixed-path interferometer; for mass density: Vibrating tube method

CCCC(=O)[O-].CCCC[NH3+] [n-butylammonium butanoate] + CO
Conditions	mass density, 293.15 K [kg/m3]	mass density, 298.15 K [kg/m3]	mass density, 303.15 K [kg/m3]	mass density, 308.15 K [kg/m3]	mass density, 313.15 K [kg/m3]	speed of sound, 293.15 K [m/s]	speed of sound, 298.15 K [m/s]	speed of sound, 303.15 K [m/s]	speed of sound, 308.15 K [m/s]	speed of sound, 313.15 K [m/s]
x1 = 0.0503	827.536 ± 4	823.196 ± 4	818.837 ± 4	814.456 ± 4	810.048 ± 4	1187.9 ± 5.2	1171.5 ± 5.2	1155.3 ± 5.2	1139.3 ± 5.2	1123.3 ± 5.2
x1 = 0.0999	850.303 ± 4	846.198 ± 4	842.076 ± 4	837.934 ± 4	833.767 ± 4	1233.9 ± 5.2	1217.6 ± 5.2	1201.5 ± 5.2	1185.5 ± 5.2	1169.7 ± 5.2
x1 = 0.1491	866.376 ± 4	862.414 ± 4	858.459 ± 4	854.49 ± 4	850.482 ± 4	1268.2 ± 5.2	1251.9 ± 5.2	1235.9 ± 5.2	1219.9 ± 5.2	1204.1 ± 5.2
x1 = 0.2011	878.773 ± 4	874.958 ± 4	871.116 ± 4	867.265 ± 4	863.431 ± 4	1295.6 ± 5.2	1279.4 ± 5.2	1263.3 ± 5.2	1247.4 ± 5.2	1231.6 ± 5.2
x1 = 0.2525	888.142 ± 4	884.423 ± 4	880.696 ± 4	876.953 ± 4	873.199 ± 4	1316.7 ± 5.2	1300.5 ± 5.2	1284.4 ± 5.2	1268.5 ± 5.2	1252.7 ± 5.2
x1 = 0.3057	895.564 ± 4	891.923 ± 4	888.274 ± 4	884.609 ± 4	880.93 ± 4	1333.9 ± 5.2	1317.8 ± 5.2	1301.7 ± 5.2	1285.8 ± 5.2	1270 ± 5.2
x1 = 0.3476	900.631 ± 4	896.968 ± 4	893.253 ± 4	889.68 ± 4	886.019 ± 4	1345.6 ± 5.2	1329.3 ± 5.2	1313.2 ± 5.2	1297.2 ± 5.2	1281.4 ± 5.2
x1 = 0.3966	905.316 ± 4	901.759 ± 4	898.192 ± 4	894.632 ± 4	891.1 ± 4	1356.4 ± 5.2	1340.1 ± 5.2	1324 ± 5.2	1308 ± 5.2	1292.1 ± 5.2
x1 = 0.4491	909.413 ± 4	905.905 ± 4	902.401 ± 4	898.901 ± 4	895.415 ± 4	1366.1 ± 5.2	1349.7 ± 5.2	1333.5 ± 5.2	1317.5 ± 5.2	1301.7 ± 5.2
x1 = 0.501	912.93 ± 4	909.441 ± 4	905.946 ± 4	902.476 ± 4	899.051 ± 4	1374.4 ± 5.2	1358 ± 5.2	1341.8 ± 5.2	1325.7 ± 5.2	1310 ± 5.2
x1 = 0.541	915.316 ± 4	911.864 ± 4	908.414 ± 4	904.968 ± 4	901.531 ± 4	1380.2 ± 5.2	1363.7 ± 5.2	1347.4 ± 5.2	1331.3 ± 5.2	1315.4 ± 5.2
x1 = 0.5913	917.715 ± 4	914.276 ± 4	910.846 ± 4	907.442 ± 4	904.079 ± 4	1386 ± 5.2	1369.4 ± 5.2	1353.1 ± 5.2	1336.9 ± 5.2	1321 ± 5.2
x1 = 0.6445	920.109 ± 4	916.724 ± 4	913.329 ± 4	909.923 ± 4	906.495 ± 4	1391.7 ± 5.2	1374.9 ± 5.2	1358.5 ± 5.2	1342.3 ± 5.2	1326.3 ± 5.2
x1 = 0.6895	921.905 ± 4	918.523 ± 4	915.128 ± 4	911.737 ± 4	908.371 ± 4	1396.6 ± 5.2	1379.8 ± 5.2	1363.2 ± 5.2	1346.9 ± 5.2	1330.8 ± 5.2
x1 = 0.7391	923.626 ± 4	920.287 ± 4	916.93 ± 4	913.559 ± 4	910.183 ± 4	1401.3 ± 5.2	1384.2 ± 5.2	1367.4 ± 5.2	1350.9 ± 5.2	1334.8 ± 5.2
x1 = 0.8007	925.47 ± 4	922.166 ± 4	918.855 ± 4	915.534 ± 4	912.194 ± 4	1407.1 ± 5.3	1389.5 ± 5.3	1372.5 ± 5.2	1355.8 ± 5.2	1339.5 ± 5.2
x1 = 0.8243	926.211 ± 4	922.909 ± 4	919.611 ± 4	916.299 ± 4	912.971 ± 4	1409.6 ± 5.3	1391.8 ± 5.3	1374.6 ± 5.3	1357.8 ± 5.3	1341.4 ± 5.2
x1 = 0.8973	927.898 ± 4	924.584 ± 4	921.292 ± 4	918.007 ± 4	914.707 ± 4	1416.7 ± 5.3	1398 ± 5.3	1380.2 ± 5.3	1362.9 ± 5.3	1346.2 ± 5.3
x1 = 0.932	928.804 ± 4	925.491 ± 4	922.195 ± 4	918.913 ± 4	915.625 ± 4	1420.3 ± 5.3	1401.2 ± 5.3	1383 ± 5.3	1365.5 ± 5.3	1348.5 ± 5.3
x1 = 1	928.794 ± 4	925.509 ± 4	922.217 ± 4	918.88 ± 4	915.567 ± 4	1431.5 ± 5.3	1410.3 ± 5.3	1390.4 ± 5.3	1371.5 ± 5.3	1353.6 ± 5.3
